# Assay results: patent US10206937B2, “Boronic acid derivatives and therapeutic uses thereof” (Qpex Biopharma, Inc., priority 2014, dated 2019)
# System: strains of Enterobacteriaceae producing various carbapenemases (class A, D and B; 104 strains)
# Assay: Antibiotics potentiation by Compound 27 (MIC; meropenem, doripenem, ertapenem, cefepime)
# Format: cell-based
# Conditions: + 27 = with Compound 27 at fixed 4 μg/ml
smiles,measurement,setting,value
C[C@@H](O)[C@H]1C(=O)N2C(C(=O)O)=C(S[C@@H]3CN[C@H](C(=O)N(C)C)C3)[C@H](C)[C@H]12 [M],MIC,strain CF1012 Citrobacter freundii (KPC-2),Y (MIC of 1 μg/mL to 10 μg/mL)
same,MIC,strain CF1021 Citrobacter freundii (CMY-type; VIM-1),Y (MIC of 1 μg/mL to 10 μg/mL)
same,MIC,"strain CF1022 Citrobacter freundii (SHV-12(2be), TEM-OSBL(2b); IMP-8)",Y (MIC of 1 μg/mL to 10 μg/mL)
same,MIC,"strain CF1023 Citrobacter freundii (SHV-12(2be), TEM-OSBL(2b); CTX-M-3; CMY-34; NDM-1)",Z (MIC of greater than 10 μg/mL)
same,MIC,strain CL1080 Enterobacter cloacae (IMP-1),Y (MIC of 1 μg/mL to 10 μg/mL)
same,MIC,"strain EA1019 Enterobacter aerogenes (SHV-5, VIM-1)",Z (MIC of greater than 10 μg/mL)
same,MIC,strain EC1007 Escherichia coli (KPC-3),X (MIC of less than 1 μg/mL)
same,MIC,"strain EC1061 Escherichia coli (NDM-1, CMY-6)",Z (MIC of greater than 10 μg/mL)
same,MIC,"strain EC1062 Escherichia coli (OXA-48, CTX-M-15)",X (MIC of less than 1 μg/mL)
same,MIC,"strain EC1064 Escherichia coli (NDM-1, CMY-6, CTX-M-15)",Z (MIC of greater than 10 μg/mL)
same,MIC,strain EC1065 Escherichia coli (IMP-1),Y (MIC of 1 μg/mL to 10 μg/mL)
same,MIC,strain EC1068 Escherichia coli (VIM-1),Z (MIC of greater than 10 μg/mL)
same,MIC,strain EC1069 Escherichia coli (CTX-M-27; NDM-1),Z (MIC of greater than 10 μg/mL)
same,MIC,strain EC1070 Escherichia coli (TEM-OSBL(2b); CMY-42; NDM-5),Z (MIC of greater than 10 μg/mL)
same,MIC,strain EC1072 Escherichia coli (CTX-M-3; NDM-1),Z (MIC of greater than 10 μg/mL)
same,MIC,strain ECL1004 Enterobacter cloacae (NMC-A),Y (MIC of 1 μg/mL to 10 μg/mL)
same,MIC,"strain ECL1026 Enterobacter cloacae (KPC-2, TEM-1)",Y (MIC of 1 μg/mL to 10 μg/mL)
same,MIC,"strain ECL1036 Enterobacter cloacae (KPC-3, TEM-1)",Y (MIC of 1 μg/mL to 10 μg/mL)
same,MIC,strain ECL1045 Enterobacter cloacae (VIM-1),Y (MIC of 1 μg/mL to 10 μg/mL)
same,MIC,"strain ECL1055 Enterobacter cloacae (KPC-3, TEM)",Y (MIC of 1 μg/mL to 10 μg/mL)
same,MIC,"strain ECL1057 Enterobacter cloacae (NDM-1, TEM-1, CTX-M-15)",Z (MIC of greater than 10 μg/mL)
same,MIC,"strain ECL1058 Enterobacter cloacae (KPC-3, SHV-11, TEM-1)",Z (MIC of greater than 10 μg/mL)
same,MIC,"strain ECL1059 Enterobacter cloacae (KPC-3, SHV-12, TEM-1)",Y (MIC of 1 μg/mL to 10 μg/mL)
same,MIC,"strain ECL1061 Enterobacter cloacae (KPC-3, Hyper AmpC expression)",Z (MIC of greater than 10 μg/mL)
same,MIC,strain ECL1082 Enterobacter cloacae (VIM-1),Z (MIC of greater than 10 μg/mL)
same,MIC,strain ECL1084 Enterobacter cloacae (CTX-M-15; ACT-16; NDM-1),Z (MIC of greater than 10 μg/mL)
same,MIC,"strain ECL1085 Enterobacter cloacae (SHV-31(2be), TEM-1(2b); CTX-M-15; NDM-1)",Z (MIC of greater than 10 μg/mL)
same,MIC,"strain ECL1086 Enterobacter cloacae (VIM-31, OXA-48(c))",Y (MIC of 1 μg/mL to 10 μg/mL)
same,MIC,strain ECL1087 Enterobacter cloacae (VIM-1),Z (MIC of greater than 10 μg/mL)
same,MIC,strain ECL1088 Enterobacter cloacae (TEM-1(2b); CTX-M-14; ACT-type; VIM-1),Z (MIC of greater than 10 μg/mL)
same,MIC,strain ECL1089 Enterobacter cloacae (ACT-type; IMP-1),Z (MIC of greater than 10 μg/mL)
same,MIC,strain ECL1090 Enterobacter cloacae (TEM-1(2b); CTX-M-22; ACT-type; IMP-8),Y (MIC of 1 μg/mL to 10 μg/mL)
same,MIC,strain ECL1091 Enterobacter cloacae (VIM-1),Z (MIC of greater than 10 μg/mL)
same,MIC,strain ECL1092 Enterobacter cloacae (TEM-OSBL(2b); ACT-32; VIM-1),Y (MIC of 1 μg/mL to 10 μg/mL)
same,MIC,strain ECL1093 Enterobacter cloacae (TEM-OSBL(2b); ACT-32; VIM-1),Y (MIC of 1 μg/mL to 10 μg/mL)
same,MIC,strain ECL1094 Enterobacter cloacae (VIM-1),Z (MIC of greater than 10 μg/mL)
same,MIC,"strain ECL1096 Enterobacter cloacae (CMY-4, VIM-4, OXA-48(c))",Y (MIC of 1 μg/mL to 10 μg/mL)
same,MIC,"strain ECL1097 Enterobacter cloacae (SHV-31(2be), TEM-OSBL(2b); CTX-M-15; ACT-31; NDM-1)",Z (MIC of greater than 10 μg/mL)
same,MIC,strain ECL1098 Enterobacter cloacae (TEM-OSBL(2b); DHA-1; ACT-16; NDM-1),Z (MIC of greater than 10 μg/mL)
same,MIC,strain KP1001 Klebsiella pneumoniae (KPC TEM SHV),Z (MIC of greater than 10 μg/mL)
same,MIC,strain KP1002 Klebsiella pneumoniae (KPC TEM SHV),Y (MIC of 1 μg/mL to 10 μg/mL)
same,MIC,strain KP1003 Klebsiella pneumoniae (KPC TEM SHV),Y (MIC of 1 μg/mL to 10 μg/mL)
same,MIC,"strain KP1004 Klebsiella pneumoniae (KPC-2, TEM-1, SHV-11)",Z (MIC of greater than 10 μg/mL)
same,MIC,strain KP1008 Klebsiella pneumoniae (KPC-2),Y (MIC of 1 μg/mL to 10 μg/mL)
same,MIC,"strain KP1014 Klebsiella pneumoniae (VIM-1, TEM, SHV)",Y (MIC of 1 μg/mL to 10 μg/mL)
same,MIC,"strain KP1054 Klebsiella pneumoniae (VIM-1, SHV-11)",Z (MIC of greater than 10 μg/mL)
same,MIC,"strain KP1059 Klebsiella pneumoniae (VIM-1, SHV-11)",Z (MIC of greater than 10 μg/mL)
same,MIC,"strain KP1061 Klebsiella pneumoniae (KPC-3, SHV-11, TEM-1)",Z (MIC of greater than 10 μg/mL)
same,MIC,"strain KP1064 Klebsiella pneumoniae (KPC-2, SHV-11, TEM-1)",Z (MIC of greater than 10 μg/mL)
same,MIC,"strain KP1065 Klebsiella pneumoniae (VIM-1, SHV-11)",Y (MIC of 1 μg/mL to 10 μg/mL)
same,MIC,"strain KP1070 Klebsiella pneumoniae (KPC-2, SHV-11, TEM-1)",Z (MIC of greater than 10 μg/mL)
same,MIC,"strain KP1074 Klebsiella pneumoniae (KPC-3, SHV-11, TEM)",Z (MIC of greater than 10 μg/mL)
